Results published in patent US20230278972A1, “SUBSTITUTED HALOALKYL SULFONANILIDE HERBICIDES” (FMC Corporation, priority 2020, published 2023).

Tests used:
Assay type in all cases: in vivo
[1] = test system: blackgrass (Alopecurus myosuroides); test: Test A postemergence, blackgrass; conditions: Postemergence, 0 to 100 scale (0 no effect, 100 complete control); for Plant response rating, Blackgrass: 125 g ai/ha; for Blackgrass plant response rating: 500 g ai/ha, visual injury vs untreated controls after approx. 10 days
How it was run: (§1)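 Whole-plant herbicidal screen in pots of loam blended with sand. Sprays used a surfactant-containing, non-phytotoxic solvent vehicle. Timing was preemergence soil-directed at planting or postemergence at the one- to two-leaf stage (2–10 cm).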

[2] = test system: pigweed (Amaranthus retroflexus); test: Test A postemergence, pigweed; conditions: Postemergence, 0 to 100 scale (0 no effect, 100 complete control); for Plant response rating, Pigweed: 125 g ai/ha; for Pigweed plant response rating: 500 g ai/ha, visual injury vs untreated controls after approx. 10 days
How it was run: as §1

[3] = test system: ragweed (common ragweed, Ambrosia artemisiifolia); test: Test A postemergence, ragweed; conditions: Postemergence, 0 to 100 scale (0 no effect, 100 complete control); for Plant response rating, Ragweed: 125 g ai/ha; for Ragweed plant response rating: 500 g ai/ha, visual injury vs untreated controls after approx. 10 days
How it was run: as §1

[4] = test system: galium (catchweed bedstraw, Galium aparine); test: Test A postemergence, galium; conditions: Postemergence, 0 to 100 scale (0 no effect, 100 complete control); for Plant response rating, Galium: 125 g ai/ha; for Galium plant response rating: 500 g ai/ha, visual injury vs untreated controls after approx. 10 days
How it was run: (§2)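 Compounds in non-phytotoxic solvent with surfactant. Soil: loam/sand. Preemergence via directed soil spray after seeding; postemergence on seedlings 2–10 cm, one- to two-leaf.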

[5] = test system: barnyardgrass (Echinochloa crus-galli); test: Test A postemergence, barnyardgrass; conditions: Postemergence, 0 to 100 scale (0 no effect, 100 complete control); for Plant response rating, Barnyardgrass: 125 g ai/ha; for Barnyardgrass plant response rating: 500 g ai/ha, visual injury vs untreated controls after approx. 10 days
How it was run: as §2

[6] = test system: Foxtail, Giant (giant foxtail, Setaria faberi); test: Test A postemergence, Foxtail, Giant; conditions: Postemergence, 0 to 100 scale (0 no effect, 100 complete control); for Plant response rating, Foxtail, Giant: 125 g ai/ha; for Foxtail, Giant plant response rating: 500 g ai/ha, visual injury vs untreated controls after approx. 10 days
How it was run: as §1

[7] = test system: wheat (Triticum aestivum); test: Test A postemergence, wheat; conditions: Postemergence, 0 to 100 scale (0 no effect, 100 complete control); for Plant response rating, Wheat: 125 g ai/ha; for Wheat plant response rating: 500 g ai/ha, visual injury vs untreated controls after approx. 10 days
How it was run: as §2

kochia (Bassia scoparia) [8] = test: Test A postemergence, kochia; conditions: Postemergence, 0 to 100 scale (0 no effect, 100 complete control); for Plant response rating, Kochia: 125 g ai/ha; for Kochia plant response rating: 500 g ai/ha, visual injury vs untreated controls after approx. 10 days
How it was run: as §1

[9] = test system: Ryegrass, Italian (Italian ryegrass, Lolium multiflorum); test: Test A preemergence, Ryegrass, Italian; conditions: Preemergence; for Ryegrass, Italian plant response rating: 125 g ai/ha, visual injury on 0 to 100 scale (0 no effect, 100 complete control), approximately 10 days; for Plant response rating, Ryegrass, Italian: 500 g ai/ha, 0 to 100 scale (0 no effect, 100 complete control)
How it was run: as §1

[10] = test system: barnyardgrass (Echinochloa crus-galli); test: Test A preemergence, barnyardgrass; conditions: Preemergence; for Barnyardgrass plant response rating: 125 g ai/ha, visual injury on 0 to 100 scale (0 no effect, 100 complete control), approximately 10 days; for Plant response rating, Barnyardgrass: 500 g ai/ha, 0 to 100 scale (0 no effect, 100 complete control)
How it was run: as §1

[11] = test system: pigweed (Amaranthus retroflexus); test: Test A preemergence, pigweed; conditions: for Pigweed plant response rating: 125 g ai/ha, visual injury on 0 to 100 scale (0 no effect, 100 complete control), approximately 10 days; for Plant response rating, Pigweed: 500 g ai/ha, 0 to 100 scale (0 no effect, 100 complete control)
How it was run: as §2

corn (Zea mays) = test: Test A postemergence, corn; conditions: Postemergence, 0 to 100 scale (0 no effect, 100 complete control); for Plant response rating, Corn: 125 g ai/ha; for Corn plant response rating: 500 g ai/ha, visual injury vs untreated controls after approx. 10 days
How it was run: as §1

[12] = test system: Ryegrass, Italian (Italian ryegrass, Lolium multiflorum); test: Test A postemergence, Ryegrass, Italian; conditions: Postemergence, 0 to 100 scale (0 no effect, 100 complete control); for Plant response rating, Ryegrass, Italian: 125 g ai/ha; for Ryegrass, Italian plant response rating: 500 g ai/ha, visual injury vs untreated controls after approx. 10 days
How it was run: as §1

[13] = test system: ragweed (common ragweed, Ambrosia artemisiifolia); test: Test A preemergence, ragweed; conditions: Preemergence; for Ragweed plant response rating: 125 g ai/ha, visual injury on 0 to 100 scale (0 no effect, 100 complete control), approximately 10 days; for Plant response rating, Ragweed: 500 g ai/ha, 0 to 100 scale (0 no effect, 100 complete control)
How it was run: as §1

[14] = test system: Foxtail, Giant (giant foxtail, Setaria faberi); test: Test A preemergence, Foxtail, Giant; conditions: Preemergence; for Foxtail, Giant plant response rating: 125 g ai/ha, visual injury on 0 to 100 scale (0 no effect, 100 complete control), approximately 10 days; for Plant response rating, Foxtail, Giant: 500 g ai/ha, 0 to 100 scale (0 no effect, 100 complete control)
How it was run: as §1

kochia (Bassia scoparia) [15] = test: Test A preemergence, kochia; conditions: Preemergence; for Kochia plant response rating: 125 g ai/ha, visual injury on 0 to 100 scale (0 no effect, 100 complete control), approximately 10 days; for Plant response rating, Kochia: 500 g ai/ha, 0 to 100 scale (0 no effect, 100 complete control)
How it was run: as §1

| Compound | Plant response rating, Blackgrass [1] | Blackgrass plant response rating [1] | Plant response rating, Pigweed [2] | Pigweed plant response rating [2] | Plant response rating, Ragweed [3] | Ragweed plant response rating [3] | Plant response rating, Galium [4] | Galium plant response rating [4] | Plant response rating, Barnyardgrass [5] | Barnyardgrass plant response rating [5] | Plant response rating, Foxtail, Giant [6] | Foxtail, Giant plant response rating [6] | Plant response rating, Wheat [7] | Wheat plant response rating [7] | Plant response rating, Kochia (kochia (Bassia scoparia) [8]) | Kochia plant response rating (kochia (Bassia scoparia) [8]) | Ryegrass, Italian plant response rating [9] | Plant response rating, Ryegrass, Italian [9] | Barnyardgrass plant response rating [10] | Plant response rating, Barnyardgrass [10] | also measured |
| --- | --- | --- | --- | --- | --- | --- | --- | --- | --- | --- | --- | --- | --- | --- | --- | --- | --- | --- | --- | --- | --- |
| Cc1cc(Cl)c(C2=NOC(C)(C)C2)cc1N(S(=O)(=O)C(F)(F)F)S(=O)(=O)C(F)(F)F [Compound 184] | 0 | 20 | 20 | 40 | 40 | 70 | 80 | 90 | 20 | 50 | 0 | 0 | 0 | 0 | 0 | 30 | 30 | 50 | 70 | 100 | Pigweed plant response rating [11]: 70; Plant response rating, Pigweed [11]: 100; Plant response rating, Corn (corn (Zea mays)): 0; Corn plant response rating (corn (Zea mays)): 0; Plant response rating, Ryegrass, Italian [12]: 0; Ryegrass, Italian plant response rating [12]: 0; Ragweed plant response rating [13]: 80; Plant response rating, Ragweed [13]: 90; Foxtail, Giant plant response rating [14]: 30; Plant response rating, Foxtail, Giant [14]: 90; Kochia plant response rating (kochia (Bassia scoparia) [15]): 0; Plant response rating, Kochia (kochia (Bassia scoparia) [15]): 0 |
| Cc1cc(Cl)c(C2=NOC3(CCCC3)C2)cc1NS(=O)(=O)C(F)(F)F [Compound 185] | 0 | 10 | 0 | 40 | 0 | 40 | 30 | 70 | 0 | 20 | 0 | 0 | 0 | 0 | 0 | 10 | 50 | 100 | 70 | 100 | Pigweed plant response rating [11]: 50; Plant response rating, Pigweed [11]: 80; Plant response rating, Corn (corn (Zea mays)): 0; Corn plant response rating (corn (Zea mays)): 0; Plant response rating, Ryegrass, Italian [12]: 0; Ryegrass, Italian plant response rating [12]: 0; Ragweed plant response rating [13]: 20; Plant response rating, Ragweed [13]: 70; Foxtail, Giant plant response rating [14]: 50; Plant response rating, Foxtail, Giant [14]: 100; Kochia plant response rating (kochia (Bassia scoparia) [15]): 0; Plant response rating, Kochia (kochia (Bassia scoparia) [15]): 0 |
| Cc1cc(Cl)c(C2=NOC3(CCCC3)C2)cc1N(S(=O)(=O)C(F)(F)F)S(=O)(=O)C(F)(F)F [Compound 186] | 0 | 20 | 0 | 50 | 40 | 60 | 60 | 80 | 10 | 20 | 0 | 20 | 0 | 30 | 10 | 40 | 60 | 100 | 60 | 100 | Pigweed plant response rating [11]: 20; Plant response rating, Pigweed [11]: 80; Plant response rating, Corn (corn (Zea mays)): 0; Corn plant response rating (corn (Zea mays)): 30; Plant response rating, Ryegrass, Italian [12]: 0; Ryegrass, Italian plant response rating [12]: 20; Ragweed plant response rating [13]: 20; Plant response rating, Ragweed [13]: 50; Foxtail, Giant plant response rating [14]: 60; Plant response rating, Foxtail, Giant [14]: 100; Kochia plant response rating (kochia (Bassia scoparia) [15]): 20; Plant response rating, Kochia (kochia (Bassia scoparia) [15]): 70 |
